Measured values: patent US20230157996A1, “SMALL-MOLECULE INHIBITOR TARGETING EB VIRUS NUCLEAR ANTIGEN PROTEIN, PREPARATION METHOD AND USE THEREOF” (priority 2020, published 2023)

What follows are molecules tested on C666-1 cells (assay: C666-1 cell viability single concentration (50 μM) inhibition rate (Resazurin)). Conditions: Homo sapiens, C6661, 72 h, 50 μM compound, 72 hours, C666-1 cells; read-out: C666-1 cell viability single concentration (50 μM) inhibition rate, Ratio* (Inh %).
Format: cell-based
Summary of the method: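 Resazurin fluorescence (560/590 nm, 3 h development) gave the proliferation inhibition rate, normalised to DMSO-treated and cell-free blank wells. Compound was tested at a single 50 μmol/L final concentration on C666-1 cells for 72 h at 37° C, with duplicate wells, after 24 h seeding.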
Molecule O=C(Nc1ccc(OC2CN(c3cccc(C(=O)O)c3-n3cccc3)C2)cc1)Nc1cccc(Cl)c1 [Example 134, 3-(3-(4-(3-(3-chlorophenyl)ureido)phenoxy)azetidin-1-yl)-2-(1H-pyrrol-1-yl)benzoic acid] has an inhibition at 50 µM of 10 to 30%.
In the case of COC(=O)c1cccc(N2CC(Oc3ccc(NC(=O)Nc4ccccc4Cl)cc3)C2)c1-n1cccc1 [Example 135, Methyl 3-(3-(4-(3-(2-chlorophenyl)ureido)phenoxy)azetidin-1-yl)-2-(1H-pyrrol-1-yl)benzoate], the inhibition at 50 µM is reported as < 10%.
With O=C(Nc1ccc(OC2CN(c3cccc(C(=O)O)c3-n3cccc3)C2)cc1)Nc1ccccc1Cl [Example 136, 3-(3-(4-(3-(2-chlorophenyl)ureido)phenoxy)azetidin-1-yl)-2-(1H-pyrrol-1-yl)benzoic acid] the inhibition at 50 µM was < 10%.
For COC(=O)c1cccc(N2CC(Oc3ccc(NC(=O)Nc4cccc(C#N)c4)cc3)C2)c1-n1cccc1 [Example 137, Methyl 3-(3-(4-(3-(3-cyanophenyl)ureido)phenoxy)azetidin-1-yl)-2-(1H-pyrrol-1-yl)benzoate], the inhibition at 50 µM was > 50%.
N#Cc1cccc(NC(=O)Nc2ccc(OC3CN(c4cccc(C(=O)O)c4-n4cccc4)C3)cc2)c1 [Example 138, 3-(3-(4-(3-(3-cyanophenyl)ureido)phenoxy)azetidin-1-yl)-2-(1H-pyrrol-1-yl)benzoic acid] was tested, and the inhibition at 50 µM was < 10%.
In the case of COC(=O)c1cccc(N2CC(OCc3ccc(OC)cc3)C2)c1-n1cccc1 [Example 139, Methyl 3-(3-((4-methoxybenzyl)oxy)azetidin-1-yl)-2-(1H-pyrrol-1-yl)benzoate], the inhibition at 50 µM is reported as < 10%.
COC(=O)c1cccc(N2CC(OCc3cscn3)C2)c1-n1cccc1 [Example 140] gave an inhibition at 50 µM of 10 to 30%.
In the case of O=C(O)c1cccc(N2CC(OCc3cscn3)C2)c1-n1cccc1 [Example 141], the inhibition at 50 µM is reported as < 10%.
With COC(=O)c1cccc(N2CC(OCc3cnccn3)C2)c1-n1cccc1 [Example 142] the inhibition at 50 µM was < 10%.
With O=C(O)c1cccc(N2CC(OCc3cnccn3)C2)c1-n1cccc1 [Example 143] the inhibition at 50 µM was < 10%.
For COC(=O)c1cccc(N2CC(OCC(=O)Nc3ccccc3)C2)c1-n1cccc1 [Example 144, Methyl 3-(3-(2-oxo-2-(phenylamino)ethoxy)azetidin-1-yl)-2-(1H-pyrrol-1-yl)benzoate], the inhibition at 50 µM was 10 to 30%.
For O=C(COC1CN(c2cccc(C(=O)O)c2-n2cccc2)C1)Nc1ccccc1 [Example 145, 3-(3-(2-oxo-2-(phenylamino)ethoxy)azetidin-1-yl)-2-(1H-pyrrol-1-yl)benzoic acid], the inhibition at 50 µM was < 10%.
With O=C(O)c1cccc(N2CC(OC(=S)Nc3ccc(Cl)cc3)C2)c1-n1cccc1 [Example 148, 3-(3-(((4-chlorophenyl)thiocarbamoyl)oxy)azetidin-1-yl)-2-(1H-pyrrol-1-yl)benzoic acid] the inhibition at 50 µM was < 10%.
For COC(=O)c1cccc(N2CC(OC(=O)NC3CCCCC3)C2)c1-n1cccc1 [Example 149, Methyl 3-(3-((cyclohexylcarbamoyl)oxy)azetidin-1-yl)-2-(1H-pyrrol-1-yl)benzoate], the inhibition at 50 µM was 10 to 30%.
With O=C(NC1CCCCC1)OC1CN(c2cccc(C(=O)O)c2-n2cccc2)C1 [Example 150, 3-(3-((cyclohexylcarbamoyl)oxy)azetidin-1-yl)-2-(1H-pyrrol-1-yl)benzoic acid] the inhibition at 50 µM was < 10%.
With COC(=O)c1cccc(N2CC(OC(=O)Nc3ccc(C4CNCCO4)c(F)c3)C2)c1-n1cccc1 (centres unmarked) [Example 151, Methyl 3-(3-(((3-fluoro-4-(morpholin-2-yl)phenyl)carbamoyl)oxy)azetidin-1-yl)-2-(1H-pyrrol-1-yl)benzoate] the inhibition at 50 µM was 10 to 30%.
Work on COC(=O)c1cccc(N2CC(OC(=O)NC3CC3)C2)c1-n1cccc1 [Example 155, Methyl 3-(3-((cyclopropylcarbamoyl)oxy)azetidin-1-yl)-2-(1H-pyrrol-1-yl)benzoate] yielded an inhibition at 50 µM of 10 to 30%.
For COC(=O)c1cccc(N2CC(OC(=S)Nc3ccc(Br)cc3)C2)c1-n1cccc1 [Example 156, Methyl 3-(3-(((4-bromophenyl)thiocarbamoyl)oxy)azetidin-1-yl)-2-(1H-pyrrol-1-yl)benzoate], the inhibition at 50 µM was 30 to 50%.
In the case of O=C(O)c1cccc(N2CC(OC(=S)Nc3ccc(Br)cc3)C2)c1-n1cccc1 [Example 157, 3-(3-(((4-bromophenyl)thiocarbamoyl)oxy)azetidin-1-yl)-2-(1H-pyrrol-1-yl)benzoic acid], the inhibition at 50 µM is reported as < 10%.
In the case of COC(=O)c1cccc(N2CC(OC(=S)Nc3ccc(OC)cc3)C2)c1-n1cccc1 [Example 158, Methyl 3-(3-(((4-methoxyphenyl)thiocarbamoyl)oxy)azetidin-1-yl)-2-(1H-pyrrol-1-yl)benzoate], the inhibition at 50 µM is reported as > 50%.
In the case of COc1ccc(NC(=S)OC2CN(c3cccc(C(=O)O)c3-n3cccc3)C2)cc1 [Example 159, 3-(3-(((4-methoxyphenyl)thiocarbamoyl)oxy)azetidin-1-yl)-2-(1H-pyrrol-1-yl)benzoic acid], the inhibition at 50 µM is reported as < 10%.
With CCNC(=S)OC1CN(c2cccc(C(=O)OC)c2-n2cccc2)C1 [Example 160, Methyl 3-(3-((ethylthiocarbamoyl)oxy)azetidin-1-yl)-2-(1H-pyrrol-1-yl)benzoate] the inhibition at 50 µM was 30 to 50%.
With CCNC(=S)OC1CN(c2cccc(C(=O)O)c2-n2cccc2)C1 [Example 161, 3-(3-((ethylthiocarbamoyl)oxy)azetidin-1-yl)-2-(1H-pyrrol-1-yl)benzoic acid] the inhibition at 50 µM was < 10%.
COC(=O)c1cccc(N2CC(OC(=S)Nc3ccc(Cl)cc3Cl)C2)c1-n1cccc1 [Example 162, Methyl 3-(3-(((2,4-dichlorophenyl)thiocarbamoyl)oxy)azetidin-1-yl)-2-(1H-pyrrol-1-yl)benzoate] showed an inhibition at 50 µM of 10 to 30%.
In the case of O=C(O)c1cccc(N2CC(OC(=S)Nc3ccc(Cl)cc3Cl)C2)c1-n1cccc1 [Example 163, 3-(3-(((2,4-dichlorophenyl)thiocarbamoyl)oxy)azetidin-1-yl)-2-(1H-pyrrol-1-yl)benzoic acid], the inhibition at 50 µM is reported as < 10%.
For COC(=O)c1cccc(N2CC(NC(=O)NC3CC3)C2)c1-n1cccc1 [Example 164, Methyl 3-(3-(3-cyclopropylureido)azetidin-1-yl)-2-(1H-pyrrol-1-yl)benzoate], the inhibition at 50 µM was < 10%.
Molecule COC(=O)c1cccc(N2CC(NC(=O)Nc3ccc(Oc4ccccc4)cc3)C2)c1-n1cccc1 [Example 165, Methyl 3-(3-(3-(4-phenoxyphenyl)ureido)azetidin-1-yl)-2-(H-pyrrol-1-yl)benzoate] has an inhibition at 50 µM of 10 to 30%.
In the case of COC(=O)c1cccc(N2CC(NC(=O)Nc3ccc(OC(F)(F)F)cc3)C2)c1-n1cccc1 [Example 166, Methyl 2-(1H-pyrrol-1-yl)-3-(3-(3-(4-(trifluoromethoxy)phenyl)ureido)azetidin-1-yl)benzoate], the inhibition at 50 µM is reported as > 50%.
For O=C(Nc1ccc(Oc2ccccc2)cc1)NC1CN(c2cccc(C(=O)O)c2-n2cccc2)C1 [Example 167, 3-(3-(3-(4-phenoxyphenyl)ureido)azetidin-1-yl)-2-(1H-pyrrol-1-yl)benzoic acid], the inhibition at 50 µM was < 10%.
For O=C(Nc1ccc(OC(F)(F)F)cc1)NC1CN(c2cccc(C(=O)O)c2-n2cccc2)C1 [Example 168, 2-(1H-pyrrol-1-yl)-3-(3-(3-(4-(trifluoromethoxy)phenyl)ureido)azetidin-1-yl)benzoic acid], the inhibition at 50 µM was < 10%.
For O=C(NC1CC1)NC1CN(c2cccc(C(=O)O)c2-n2cccc2)C1 [Example 169, 3-(3-(3-cyclopropylureido)azetidin-1-yl)-2-(1H-pyrrol-1-yl)benzoic acid], the inhibition at 50 µM was < 10%.
Molecule COC(=O)c1cccc(N2CC(NC(=O)Nc3cc(OC)cc(OC)c3)C2)c1-n1cccc1 [Example 170, Methyl 3-(3-(3-(3,5-dimethoxyphenyl)ureido)azetidin-1-yl)-2-(1H-pyrrol-1-yl)benzoate] has an inhibition at 50 µM of 10 to 30%.
COc1cc(NC(=O)NC2CN(c3cccc(C(=O)O)c3-n3cccc3)C2)cc(OC)c1 [Example 171, 3-(3-(3-(3,5-dimethoxyphenyl)ureido)azetidin-1-yl)-2-(1H-pyrrol-1-yl)benzoic acid] was tested, and the inhibition at 50 µM was < 10%.
Molecule CCNC(=S)NC1CN(c2cccc(C(=O)OC)c2-n2cccc2)C1 [Example 172, Methyl 3-(3-(3-ethylthioureido)azetidin-1-yl)-2-(1H-pyrrol-1-yl)benzoate] has an inhibition at 50 µM of 10 to 30%.
CCNC(=S)NC1CN(c2cccc(C(=O)O)c2-n2cccc2)C1 [Example 173, 3-(3-(3-ethylthioureido)azetidin-1-yl)-2-(1H-pyrrol-1-yl)benzoic acid] was tested, and the inhibition at 50 µM was < 10%.
COC(=O)c1cccc(N2CC(NC(=S)Nc3ccc(Cl)cc3)C2)c1-n1cccc1 [Example 174, Methyl 3-(3-(3-(4-chlorophenyl)thioureido)azetidin-1-yl)-2-(1H-pyrrol-1-yl)benzoate] was tested, and the inhibition at 50 µM was > 50%.
For O=C(O)c1cccc(N2CC(NC(=S)Nc3ccc(Cl)cc3)C2)c1-n1cccc1 [Example 175, 3-(3-(3-(4-chlorophenyl)thioureido)azetidin-1-yl)-2-(1H-pyrrol-1-yl)benzoic acid], the inhibition at 50 µM was < 10%.
COC(=O)c1cccc(N2CC(NS(=O)(=O)c3ccc(C)cc3)C2)c1-n1cccc1 [Example 176, Methyl 3-(3-((4-methylphenyl)sulfonamido)azetidin-1-yl)-2-(1H-pyrrol-1-yl)benzoate] was tested, and the inhibition at 50 µM was 10 to 30%.
With Cc1ccc(S(=O)(=O)NC2CN(c3cccc(C(=O)O)c3-n3cccc3)C2)cc1 [Example 177, 3-(3-((4-methylphenyl)sulfonamido)azetidin-1-yl)-2-(1H-pyrrol-1-yl)benzoic acid] the inhibition at 50 µM was < 10%.
For COC(=O)c1cccc(N2CC(NC(=O)c3ccccc3)C2)c1-n1cccc1 [Example 178, Methyl 3-(3-benzamidoazetidin-1-yl)-2-(1H-pyrrol-1-yl)benzoate], the inhibition at 50 µM was 10 to 30%.
O=C(NC1CN(c2cccc(C(=O)O)c2-n2cccc2)C1)c1ccccc1 [Example 179, 3-(3-benzamidoazetidin-1-yl)-2-(1H-pyrrol-1-yl)benzoic acid] was tested, and the inhibition at 50 µM was < 10%.
